In patent publication US10925856B2, “Methods and compositions involving bucindolol for the treatment of atrial fibrillation” (priority 2018, dated 2021):

Tests used:
NT-proBNP = assay: Plasma NT-proBNP (electrochemiluminescence immunoassay)
plasma norepinephrine = assay: Plasma norepinephrine (HPLC with electrochemical detection); conditions: Canada
[1] = Europe excluding Hungary (n = 48)
[2] = change from baseline, Canada (n = 59)
[3] = change from baseline, Entire Cohort (n = 267)
[4] = change from baseline, Europe excluding Hungary (n = 48)
[5] = change from baseline, Hungary (n = 33)
[6] = change from baseline, U.S. (n = 127)

Compound: CC(C)(Cc1c[nH]c2ccccc12)NCC(O)COc1ccccc1C#N (stereo not shown) [bucindolol, 2-(3-(1-(1H-indol-3-yl)-2-methylpropan-2-ylamino)-2-hydroxypropoxy)benzonitrile]
- NT-proBNP, Week 4 Mean (NT-proBNP; Canada): 859 pg/mL
- NT-proBNP, Week 4 Median (NT-proBNP; Canada): 499 pg/mL
- NT-proBNP, ΔWeek 4 Mean ± SEM (NT-proBNP; Canada): -455 pg/mL
- NT-proBNP, ΔWeek 4 Median (NT-proBNP; Canada): -184 pg/mL
- NT-proBNP, Baseline Mean ± SD (NT-proBNP; Canada (n = 59)): 1314 ± 1503 pg/mL
- NT-proBNP, Baseline Median (NT-proBNP; Canada (n = 59)): 790 pg/mL
- NT-proBNP, Week 12 Mean ± SD (NT-proBNP; Canada (n = 59)): 674 ± 767 pg/mL
- NT-proBNP, Week 12 Median (NT-proBNP; Canada (n = 59)): 432 pg/mL
- NT-proBNP, Week 24 Mean ± SD (NT-proBNP; Canada (n = 59)): 831 ± 961 pg/mL
- NT-proBNP, Week 24 Median (NT-proBNP; Canada (n = 59)): 425 pg/mL
- NT-proBNP, Week 4 Mean (NT-proBNP; Entire Cohort): 1196 pg/mL
- NT-proBNP, Week 4 Median (NT-proBNP; Entire Cohort): 613 pg/mL
- NT-proBNP, ΔWeek 4 Mean ± SEM (NT-proBNP; Entire Cohort): -0.4 pg/mL
- NT-proBNP, ΔWeek 4 Median (NT-proBNP; Entire Cohort): -96 pg/mL
- NT-proBNP, Baseline Mean ± SD (NT-proBNP; Entire Cohort (n = 267)): 1159 ± 1306 pg/mL
- NT-proBNP, Baseline Median (NT-proBNP; Entire Cohort (n = 267)): 777 pg/mL
- NT-proBNP, Week 12 Mean ± SD (NT-proBNP; Entire Cohort (n = 267)): 1052 ± 1923 pg/mL
- NT-proBNP, Week 12 Median (NT-proBNP; Entire Cohort (n = 267)): 470 pg/mL
- NT-proBNP, Week 24 Mean ± SD (NT-proBNP; Entire Cohort (n = 267)): 1135 ± 1632 pg/mL
- NT-proBNP, Week 24 Median (NT-proBNP; Entire Cohort (n = 267)): 502 pg/mL
- NT-proBNP, Week 4 Mean (NT-proBNP; Europe excluding Hungary): 756 pg/mL
- NT-proBNP, Week 4 Median (NT-proBNP; Europe excluding Hungary): 431 pg/mL
- NT-proBNP, ΔWeek 4 Mean ± SEM (NT-proBNP; Europe excluding Hungary): -72 pg/mL
- NT-proBNP, ΔWeek 4 Median (NT-proBNP; Europe excluding Hungary): -108 pg/mL
- NT-proBNP, Baseline Mean ± SD (NT-proBNP; [1]): 893 ± 849 pg/mL
- NT-proBNP, Baseline Median (NT-proBNP; [1]): 600 pg/mL
- NT-proBNP, Week 12 Mean ± SD (NT-proBNP; [1]): 782 pg/mL
- NT-proBNP, Week 12 Median (NT-proBNP; [1]): 376 pg/mL
- NT-proBNP, Week 24 Mean ± SD (NT-proBNP; [1]): 1859 pg/mL
- NT-proBNP, Week 24 Median (NT-proBNP; [1]): 593 pg/mL
- NT-proBNP, Week 4 Mean (NT-proBNP; Hungary): 1616 pg/mL
- NT-proBNP, Week 4 Median (NT-proBNP; Hungary): 594 pg/mL
- NT-proBNP, ΔWeek 4 Mean ± SEM (NT-proBNP; Hungary): +461 pg/ml
- NT-proBNP, ΔWeek 4 Median (NT-proBNP; Hungary): -47 pg/mL
- NT-proBNP, Baseline Mean ± SD (NT-proBNP; Hungary (n = 33)): 989 ± 1428 pg/mL
- NT-proBNP, Baseline Median (NT-proBNP; Hungary (n = 33)): 567 pg/mL
- NT-proBNP, Week 12 Mean ± SD (NT-proBNP; Hungary (n = 33)): 1095 ± 1929 pg/mL
- NT-proBNP, Week 12 Median (NT-proBNP; Hungary (n = 33)): 446 pg/mL
- NT-proBNP, Week 24 Mean ± SD (NT-proBNP; Hungary (n = 33)): 1244 ± 2515 pg/mL
- NT-proBNP, Week 24 Median (NT-proBNP; Hungary (n = 33)): 244 pg/mL
- NT-proBNP, Week 4 Mean (NT-proBNP; U.S.): 1501 pg/mL
- NT-proBNP, Week 4 Median (NT-proBNP; U.S.): 796 pg/mL
- NT-proBNP, ΔWeek 4 Mean ± SEM (NT-proBNP; U.S.): +182 pg/ml
- NT-proBNP, ΔWeek 4 Median (NT-proBNP; U.S.): -75 pg/mL
- NT-proBNP, Baseline Mean ± SD (NT-proBNP; U.S. (n = 127)): 1245 ± 1332 pg/mL
- NT-proBNP, Baseline Median (NT-proBNP; U.S. (n = 127)): 904 pg/mL
- NT-proBNP, Week 12 Mean ± SD (NT-proBNP; U.S. (n = 127)): 1383 ± 2538 pg/mL
- NT-proBNP, Week 12 Median (NT-proBNP; U.S. (n = 127)): 561 pg/mL
- NT-proBNP, Week 24 Mean ± SD (NT-proBNP; U.S. (n = 127)): 1124 ± 1516 pg/mL
- NT-proBNP, Week 24 Median (NT-proBNP; U.S. (n = 127)): 653 pg/mL
- NT-proBNP decrease (NT-proBNP; Week 24, Canadian cohort): −39%
- NT-proBNP decrease relative to that in the metoprolol group (NT-proBNP; Week 24, Canadian cohort): ~3 fold
- NT-proBNP, ΔWeek 12 Mean ± SEM (NT-proBNP; [2]): -602 ± 232 pg/mL
- NT-proBNP, ΔWeek 12 Median (NT-proBNP; [2]): -176 pg/mL
- NT-proBNP, ΔWeek 24 Mean ± SEM (NT-proBNP; [2]): -442 ± 223 pg/mL
- NT-proBNP, ΔWeek 24 Median (NT-proBNP; [2]): -271 pg/mL
- NT-proBNP, ΔWeek 12 Mean ± SEM (NT-proBNP; [3]): -108 ± 133 pg/mL
- NT-proBNP, ΔWeek 12 Median (NT-proBNP; [3]): -96 pg/mL
- NT-proBNP, ΔWeek 24 Mean ± SEM (NT-proBNP; [3]): -92 ± 136 pg/mL
- NT-proBNP, ΔWeek 24 Median (NT-proBNP; [3]): -197 pg/mL
- NT-proBNP, ΔWeek 12 Mean ± SEM (NT-proBNP; [4]): -101 pg/mL
- NT-proBNP, ΔWeek 12 Median (NT-proBNP; [4]): -92 pg/mL
- NT-proBNP, ΔWeek 24 Mean ± SEM (NT-proBNP; [4]): +983 pg/ml
- NT-proBNP, ΔWeek 24 Median (NT-proBNP; [4]): -48 pg/mL
- NT-proBNP, ΔWeek 12 Mean ± SEM (NT-proBNP; [5]): +40 ± 170 pg/ml
- NT-proBNP, ΔWeek 12 Median (NT-proBNP; [5]): -96 pg/mL
- NT-proBNP, ΔWeek 24 Mean ± SEM (NT-proBNP; [5]): +41 ± 276 pg/ml
- NT-proBNP, ΔWeek 24 Median (NT-proBNP; [5]): -176 pg/mL
- NT-proBNP, ΔWeek 12 Mean ± SEM (NT-proBNP; [6]): +130 ± 262 pg/ml
- NT-proBNP, ΔWeek 12 Median (NT-proBNP; [6]): -81 pg/mL
- NT-proBNP, ΔWeek 24 Mean ± SEM (NT-proBNP; [6]): -163 ± 161 pg/mL
- NT-proBNP, ΔWeek 24 Median (NT-proBNP; [6]): -315 pg/mL
- NT-proBNP, ΔWeek 4 Median (NT-proBNP; change from baseline, entire cohort): -96 pg/mL
- NT-proBNP decrease (NT-proBNP; end of the 24-week follow-up period, U.S.): 33%
- NT-proBNP decrease from baseline (NT-proBNP; week 4, entire cohort): 96 pg/mL
- NT-proBNP decrease from baseline (NT-proBNP; week 12, entire cohort): 96 pg/mL
- NT-proBNP decrease relative to baseline (NT-proBNP; week 24, entire cohort): 197 pg/mL
- Plasma norepinephrine, Week 4 Mean (plasma norepinephrine): 583 pg/mL
- Plasma norepinephrine, Week 4 Median (plasma norepinephrine): 551 pg/mL
